# From paper PMC8079033, “Design, synthesis, anticancer evaluation, and molecular modelling studies of novel tolmetin derivatives as potential VEGFR-2 inhibitors and apoptosis inducers” (Journal of Enzyme Inhibition and Medicinal Chemistry, 2021)
# How the values were obtained:
# Assay in all cases: NCI 60-cell line one-dose antiproliferative screen (SRB)
# Format in all cases: cell-based
# NCI/ADR-RES = details: Homo sapiens, read-out: growth inhibition % (GI%)
# In short: (§1)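 Compounds tested at a single 10 µM dose for 48 h at 37 °C after 24 h pre-incubation; cells TCA-fixed and stained with sulforhodamine B, absorbance at 515 nm. Percent growth calculated relative to no-compound control and time-zero cell count, reported as growth inhibition percentage.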
# K-562 = details: Homo sapiens, K562, read-out: growth inhibition % (GI%)
# In short: as §1
# RPMI-8226 = details: Homo sapiens, read-out: growth inhibition % (GI%)
# In short: as §1
# MOLT-4 = details: Homo sapiens, read-out: growth inhibition % (GI%)
# In short: as §1
# PC-3 = details: Homo sapiens, read-out: growth inhibition % (GI%)
# In short: as §1
# BT-5 = details: Homo sapiens, read-out: growth inhibition % (GI%)
# In short: as §1
# RXF 393 = details: Homo sapiens, read-out: growth inhibition % (GI%)
# In short: as §1
# CCRF-CEM = details: Homo sapiens, read-out: growth inhibition % (GI%)
# In short: as §1
# UACC-62 = details: Homo sapiens, read-out: growth inhibition % (GI%)
# In short: as §1
# SNB-19 = details: Homo sapiens, read-out: growth inhibition % (GI%)
# In short: as §1
# EKVX = details: Homo sapiens, read-out: growth inhibition % (GI%)
# In short: as §1
# OVCAR-8 = details: Homo sapiens, read-out: growth inhibition % (GI%)
# In short: as §1
# HCT-116 = details: Homo sapiens, read-out: growth inhibition % (GI%)
# In short: as §1
# MDA-MB-435 = details: Homo sapiens, read-out: growth inhibition % (GI%)
# In short: as §1
# IGROV1 = details: Homo sapiens, IGROV-1, read-out: growth inhibition % (GI%)
# In short: as §1
# T-47D = details: Homo sapiens, T47D, read-out: growth inhibition % (GI%)
# In short: as §1
# SW-620 = details: Homo sapiens, read-out: growth inhibition % (GI%)
# In short: as §1
# LOX IMVI = details: Homo sapiens, read-out: growth inhibition % (GI%)
# In short: as §1
# SF-268 = details: Homo sapiens, read-out: growth inhibition % (GI%)
# In short: as §1
# NCI-H322M = details: Homo sapiens, read-out: growth inhibition % (GI%)
# In short: as §1
# HOP-92 = details: Homo sapiens, read-out: growth inhibition % (GI%)
# In short: as §1
# SN 12 C = details: Homo sapiens, SN12C, read-out: growth inhibition % (GI%)
# In short: as §1
# MDA-MB-468 = details: Homo sapiens, read-out: growth inhibition % (GI%)
# In short: as §1
# A549/ATCC = details: Homo sapiens, read-out: growth inhibition % (GI%)
# In short: as §1
# HOP-62 = details: Homo sapiens, read-out: growth inhibition % (GI%)
# In short: as §1
# SF-295 = details: Homo sapiens, read-out: growth inhibition % (GI%)
# In short: as §1
# SNB-75 = details: Homo sapiens, read-out: growth inhibition % (GI%)
# In short: as §1
# A498 = details: Homo sapiens, read-out: growth inhibition % (GI%)
# In short: as §1
# NCI-H522 = details: Homo sapiens, read-out: growth inhibition % (GI%)
# In short: as §1
# U251 = details: Homo sapiens, U-251, read-out: growth inhibition % (GI%)
# In short: as §1
# MCF7 = details: Homo sapiens, read-out: growth inhibition % (GI%)
# In short: as §1
# M14 = details: Homo sapiens, read-out: growth inhibition % (GI%)
# In short: as §1
# MDA-MB-231/ATCC = details: Homo sapiens, read-out: growth inhibition % (GI%)
# In short: as §1
smiles,measurement,setting,value
"Cc1ccc(C(=O)c2ccc(CC(=O)NNC(=O)Nc3ccc(Cl)c(C(F)(F)F)c3)n2C)cc1 [Compound 8c, N-(4-Chloro-3-(trifluoromethyl)phenyl)-2–(2-(1-methyl-5–(4-methylbenzoyl)-1H-pyrrol-2-yl)acetyl)hydrazinecarboxamide]",inhibition at 10 µM,NCI/ADR-RES,< 10%
same,inhibition at 10 µM,K-562,< 10%
same,inhibition at 10 µM,RPMI-8226,11.3%
same,inhibition at 10 µM,MOLT-4,19.2%
same,inhibition at 10 µM,PC-3,22.4%
same,inhibition at 10 µM,BT-5,11.4%
same,inhibition at 10 µM,RXF 393,< 10%
same,inhibition at 10 µM,CCRF-CEM,< 10%
same,inhibition at 10 µM,UACC-62,19.7%
same,inhibition at 10 µM,SNB-19,25.8%
same,inhibition at 10 µM,EKVX,< 10%
same,inhibition at 10 µM,OVCAR-8,10.9%
same,inhibition at 10 µM,HCT-116,< 10%
same,inhibition at 10 µM,MDA-MB-435,20.7%
same,inhibition at 10 µM,IGROV1,36.1%
same,inhibition at 10 µM,T-47D,13.8%
same,inhibition at 10 µM,SW-620,10.6%
same,inhibition at 10 µM,LOX IMVI,10.5%
same,inhibition at 10 µM,SF-268,26.3%
same,inhibition at 10 µM,NCI-H322M,14.4%
same,inhibition at 10 µM,HOP-92,13.5%
same,inhibition at 10 µM,SN 12 C,10.5%
same,inhibition at 10 µM,MDA-MB-468,17.5%
same,inhibition at 10 µM,A549/ATCC,21.7%
same,inhibition at 10 µM,HOP-62,20%
same,inhibition at 10 µM,SF-295,< 10%
same,inhibition at 10 µM,SNB-75,35.7%
same,inhibition at 10 µM,A498,18.3%
same,inhibition at 10 µM,NCI-H522,21.1%
same,inhibition at 10 µM,U251,< 10%
same,inhibition at 10 µM,MCF7,21.7%
same,inhibition at 10 µM,M14,11.7%
same,inhibition at 10 µM,MDA-MB-231/ATCC,16.7%
